Where a SMILES comes first, the peptide text is derived from it.
Tests used:
PC-3 cells = assay: Microscopic evaluation of cellular uptake (live-cell imaging); format: cell-based, Human; settings: TAMRA-labeled bioportide 5 µM, 1 h, 37 °C, 5% CO2, phenol red-free RPMI-1640, live-cell fluorescence imaging (EVOS M5000), 3 independent experiments
Method: (§1) To evaluate the intracellular accumulation of bioportides, PC-3 and LnCaP cells were seeded in a 24-well plate (6.00 × 10^4 and 7.50 × 10^4 cells/well, respectively) and incubated for 24 h at 37 °C under a 5% CO2 atmosphere. After washing cells with phosphate buffered saline (PBS-1×), the growth medium was exchanged for phenol red-free RPMI-1640 medium containing 5µM of TAMRA-labeled CAVPENET or CAVPENET control and incubated for 1 h. After the incubation time, the cells were washed in phenol red-free RPMI-1640 medium and observed by EVOS^TM M5000 Imaging, and photos were obtained. Live-cell imaging was used to avoid fixation artifacts. Untreated cells were included as background reading.
(§2) Figure 1 Translocation of CAVPENET control and CAVPENET bioportides into (A) PC-3 and (B) LnCaP cells. PCa cells (PC-3 and LnCaP) were incubated with TAMRA-labeled bioportides (5 µM) for 1 h at 37 °C and 5% CO2 atmosphere. Representative images from 3 independent experiments are represented. DIC: differential interference contrast. Scale bar: 150 μm.

LnCaP cells = assay: as above; format: cell-based, Human; settings: TAMRA-labeled bioportide 5 µM, 1 h, 37 °C, 5% CO2, phenol red-free RPMI-1640, live-cell fluorescence imaging (EVOS M5000), 3 independent experiments
Method: as §1, §2

[1] = phase II clinical trial; cited from earlier work
From the text: Despite the apparent anticancer role of CPT1, by reducing the availability of fatty acids, excess CPT1 seems to support PCa cell proliferation by an ROS-mediated stress phenotype. Moreover, a CPT1 knockout was associated with inhibition of PCa cell invasion, becoming an important therapeutic target for PCa. In this context, different compounds have been produced to target this protein [52]. […] Alternatively, ...

[2] = tested on: several types of cells, including different tumor cell lines; settings: cited from earlier work
cancer cells = settings: cited from earlier work; for cancer cell apoptosis: cancer cells
Method: Targeting protein phosphorylation has long been explored as a strategy for cancer treatment. For instance, several kinase inhibitors have been approved by the FDA as anticancer therapies. In the context of phosphatases, targeting the PP1 active site was one of the earliest proposed approaches for anticancer therapeutic development. The potential therapeutic effect of PP1 inhibitors tautomycin and calyculin A was evaluated in cancer cells.

Molecule	cellular internalization (PC-3 cells)	cellular internalization (LnCaP cells)	cancer cell apoptosis (cancer cells)	toxic effects (cancer cells)	also measured
CC[C@H](C)[C@H](NC(=O)[C@H](CCCCN)NC(=O)[C@@H](NC(=O)[C@@H](N)C(C)C)C(C)C)C(=O)N[C@@H](CC(=O)O)C(=O)N[C@@H](Cc1ccccc1)C(=O)N[C@@H](CCC(=O)O)C(=O)N[C@@H](CC(=O)O)C(=O)N[C@@H](CCCNC(=N)N)C(=O)N[C@@H](CCC(N)=O)C(=O)N[C@H](C(=O)N[C@@H](CCCCN)C(=O)N[C@H](C(=O)N[C@@H](Cc1c[nH]c2ccccc12)C(=O)N[C@@H](Cc1ccccc1)C(=O)N[C@@H](CCC(N)=O)C(=O)N[C@@H](CC(N)=O)C(=O)N[C@@H](CCCNC(=N)N)C(=O)N[C@@H](CCCNC(=N)N)C(=O)N[C@@H](CCSC)C(=O)N[C@@H](CCCCN)C(=O)N[C@@H](Cc1c[nH]c2ccccc12)C(=O)N[C@@H](CCCCN)C(=O)N[C@@H](CCCCN)C(N)=O)[C@@H](C)CC)[C@@H](C)CC [CAVPENET] (H-VVKIDFEDRQIKIWFQNRRMKWKK-NH2)	demonstrated cellular internalization	demonstrated cellular internalization	–	–	–
CC[C@H](C)[C@H](NC(=O)[C@H](Cc1ccccc1)NC(=O)[C@H](CC(=O)O)NC(=O)[C@@H](NC(=O)[C@@H](N)C(C)C)C(C)C)C(=O)N[C@@H](CCCCN)C(=O)N[C@@H](CCC(=O)O)C(=O)N[C@@H](CC(=O)O)C(=O)N[C@@H](CCCNC(=N)N)C(=O)N[C@@H](CCC(N)=O)C(=O)N[C@H](C(=O)N[C@@H](CCCCN)C(=O)N[C@H](C(=O)N[C@@H](Cc1c[nH]c2ccccc12)C(=O)N[C@@H](Cc1ccccc1)C(=O)N[C@@H](CCC(N)=O)C(=O)N[C@@H](CC(N)=O)C(=O)N[C@@H](CCCNC(=N)N)C(=O)N[C@@H](CCCNC(=N)N)C(=O)N[C@@H](CCSC)C(=O)N[C@@H](CCCCN)C(=O)N[C@@H](Cc1c[nH]c2ccccc12)C(=O)N[C@@H](CCCCN)C(=O)N[C@@H](CCCCN)C(N)=O)[C@@H](C)CC)[C@@H](C)CC [CAVPENET control] (H-VVDFIKEDRQIKIWFQNRRMKWKK-NH2)	demonstrated cellular internalization	demonstrated cellular internalization	–	–	–
CCOC(=O)[C@@]1(CCCCCCOc2ccc(Cl)cc2)CO1 [Etomoxir]	–	–	–	–	hepatotoxicity [1]: hepatotoxicity hampered definitive testing
RQIKIWFQNRRMKWKK [Penetratin]	–	–	–	–	toxic effects in cells [2]: absence of toxic effects
CO[C@H]([C@H](O)CC(=O)[C@@H](C)[C@@H](O)CC[C@@H](C)[C@@H]1O[C@]2(CC[C@@H](C)[C@H](CC[C@H](C)C(C)=O)O2)CC[C@@H]1C)[C@H](OC(=O)C[C@@H](O)C1=C(C)C(=O)OC1=O)C(C)C [tautomycin]	–	–	effectiveness in causing cancer cell apoptosis	significant toxic effects	–
COC[C@@H]([C@H](O)[C@H](O)C(=O)NCC[C@H](C)c1nc(/C=C/C[C@@H]2O[C@]3(C[C@@H](O)[C@@H]2C)O[C@H]([C@H](C[C@H](O)[C@H](C)[C@H](O)[C@H](C)/C=C(C)/C(C)=C/C=C/C(C)=C\C#N)OC)[C@H](OP(=O)(O)O)C3(C)C)co1)N(C)C [calyculin A]	–	–	effectiveness in causing cancer cell apoptosis	significant toxic effects	–

From paper PMC11434739, “CAVPENET Peptide Inhibits Prostate Cancer Cells Proliferation and Migration through PP1γ-Dependent Inhibition of AKT Signaling” (Pharmaceutics, 2024)
